In brackets after ≈: the same amount, converted by molar mass.
Experiments:
Homo sapiens = species on record: Homo sapiens; assay: Selectivity for human adenosine A2A receptor over human adenosine A1 receptor
[1] = Drug level in rat brain at 10 mg/kg, po after 2 hrs; format: ADME, organism-based; set-up: dose 10 mg/kg, route oral; conditions: read-out: Drug uptake
Adenosine receptor A2a [2] = target: Adenosine receptor A2a (Homo sapiens, UniProt P29274); assay: biochemical
Description: Displacement of [3H]ZM-241385 from human recombinant adenosine A2A receptor expressed in HEK293 cells

Adenosine receptor A1 = target: T1, Adenosine receptor A1 (Homo sapiens, UniProt P30542); assay: biochemical
T1 sequence (P30542 whole entry): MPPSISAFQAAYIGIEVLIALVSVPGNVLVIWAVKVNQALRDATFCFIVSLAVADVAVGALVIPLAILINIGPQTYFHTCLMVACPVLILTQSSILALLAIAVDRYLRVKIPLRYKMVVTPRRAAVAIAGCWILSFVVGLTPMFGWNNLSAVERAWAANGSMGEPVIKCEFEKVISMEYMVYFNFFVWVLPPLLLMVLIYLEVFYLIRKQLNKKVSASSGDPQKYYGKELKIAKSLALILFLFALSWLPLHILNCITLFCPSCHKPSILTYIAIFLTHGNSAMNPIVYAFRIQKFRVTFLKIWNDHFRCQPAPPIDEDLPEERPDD
Description: Displacement of [3H]DPCPX from human recombinant adenosine A1 receptor expressed in HEK293 cells

Adenosine receptor A2a [3] = target: Adenosine receptor A2a (Rattus norvegicus, UniProt P30543); assay: biochemical
Adenosine receptor A2a (Rattus norvegicus, UniProt P30543), sequence (P30543 whole entry): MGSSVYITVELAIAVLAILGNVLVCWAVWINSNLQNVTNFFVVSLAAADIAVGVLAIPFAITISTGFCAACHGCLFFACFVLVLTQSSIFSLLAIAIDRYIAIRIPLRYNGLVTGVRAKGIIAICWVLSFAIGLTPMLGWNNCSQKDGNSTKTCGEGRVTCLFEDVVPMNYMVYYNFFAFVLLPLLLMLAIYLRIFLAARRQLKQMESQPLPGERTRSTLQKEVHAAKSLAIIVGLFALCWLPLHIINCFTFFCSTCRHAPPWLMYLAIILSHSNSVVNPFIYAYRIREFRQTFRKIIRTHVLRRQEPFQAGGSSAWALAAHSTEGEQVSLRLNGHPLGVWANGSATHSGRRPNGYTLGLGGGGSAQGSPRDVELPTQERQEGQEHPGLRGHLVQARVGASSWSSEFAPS
Description: Displacement of [3H]ZM241385 from rat recombinant adenosine A2A receptor expressed in CHO cells

[4] = Solubility in PBS at pH 7.4; format: physicochemical
[5] = Metabolic stability assessed as intrinsic clearance in human liver microsomes; format: ADME, Microsome
[6] = Solubility in water; format: physicochemical
[7] = Lipophilicity, log D of the compound; format: physicochemical; conditions: octanol/water
[8] = Dissociation constant, pKa of the compound; format: physicochemical
[9] = Oral bioavailability in rat at 10 mg/kg; format: ADME, organism-based; conditions: in vivo
[10] = AUC in rat at 10 mg/kg, po; format: ADME, organism-based; set-up: dose 10 mg/kg, route oral; conditions: plasma
Adenosine receptor A2b = target: T2, Adenosine receptor A2b (Homo sapiens, UniProt P29275); assay: Displacement of [3H]MRS1754 from human adenosine A2B receptor
T2 sequence (P29275 whole entry): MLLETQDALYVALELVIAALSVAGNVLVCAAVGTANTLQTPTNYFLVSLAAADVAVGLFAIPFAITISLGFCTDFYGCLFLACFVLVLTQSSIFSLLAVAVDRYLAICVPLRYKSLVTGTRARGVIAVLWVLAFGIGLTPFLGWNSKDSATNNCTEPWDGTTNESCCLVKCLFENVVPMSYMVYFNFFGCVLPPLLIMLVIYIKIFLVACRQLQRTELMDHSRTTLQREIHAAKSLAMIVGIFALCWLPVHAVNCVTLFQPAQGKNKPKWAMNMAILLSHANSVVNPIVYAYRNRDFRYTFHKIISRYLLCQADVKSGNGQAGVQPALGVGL

Adenosine receptor A3 = target: T3, Adenosine receptor A3 (Homo sapiens, UniProt P0DMS8); assay: Displacement of [125I]AB-MECA from human adenosine A3 receptor
T3 sequence (P0DMS8 whole entry): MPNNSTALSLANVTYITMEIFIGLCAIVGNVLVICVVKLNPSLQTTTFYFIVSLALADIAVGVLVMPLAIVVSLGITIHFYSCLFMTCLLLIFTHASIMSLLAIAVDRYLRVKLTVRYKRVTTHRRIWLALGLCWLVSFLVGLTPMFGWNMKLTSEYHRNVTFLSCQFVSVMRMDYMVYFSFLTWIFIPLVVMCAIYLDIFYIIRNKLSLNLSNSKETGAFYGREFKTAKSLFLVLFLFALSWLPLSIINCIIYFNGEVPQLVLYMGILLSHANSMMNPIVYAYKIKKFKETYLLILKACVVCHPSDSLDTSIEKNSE

Adenosine receptor A2a (Homo sapiens, UniProt P29274), sequence (P29274 whole entry): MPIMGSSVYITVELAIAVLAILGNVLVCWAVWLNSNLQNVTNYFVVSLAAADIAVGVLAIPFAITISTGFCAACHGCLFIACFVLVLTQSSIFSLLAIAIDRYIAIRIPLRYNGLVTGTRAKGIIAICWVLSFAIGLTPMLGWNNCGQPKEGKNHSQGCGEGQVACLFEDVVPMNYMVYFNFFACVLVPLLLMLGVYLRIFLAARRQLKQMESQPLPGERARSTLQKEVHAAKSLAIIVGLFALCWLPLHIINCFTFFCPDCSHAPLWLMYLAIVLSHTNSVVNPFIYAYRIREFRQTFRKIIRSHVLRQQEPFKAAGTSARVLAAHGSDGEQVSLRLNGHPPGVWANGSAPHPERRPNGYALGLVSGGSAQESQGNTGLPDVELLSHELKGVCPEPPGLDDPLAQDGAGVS

SMILES | Ratio Ki (Homo sapiens) | Ki (Adenosine receptor A1) | concentration at 2 h [1] | Ki (Adenosine receptor A2a [2]) | Ki (Adenosine receptor A2a [3]) | also measured
Cc1cc(C)n(-c2cc(NC(=O)CN3CCN(C)CC3)nc(-c3ccco3)n2)n1 | 864 | 1.73 µM | 600 ng/g | 0.002 µM | 0.014 µM | 
O=C(CN1CCOCC1)Nc1cc(-n2cccn2)nc(-c2ccco2)n1 | 39 | 0.063 µM |  | 0.0016 µM |  | 
CN1CCN(CC(=O)Nc2cc(-c3nccs3)nc(-c3ccco3)n2)CC1 | 238 | 0.218 µM | 3200 ng/g | 0.0009 µM | 0.011 µM | 
COCCOc1ccc(N2CCN(CCn3ncc4c3nc(N)n3nc(-c5ccco5)nc43)CC2)cc1 [PRELADENANT] |  |  |  |  |  | solubility ([4]; buffer): < 0.01 µg/mL

Continued, in another order:

Ratio Ki (Homo sapiens) | Ki (Adenosine receptor A1) | SMILES | concentration at 2 h [1] | Ki (Adenosine receptor A2a [2]) | Ki (Adenosine receptor A2a [3]) | also measured
15 | 0.0092 µM | CC(=O)Nc1cc(-n2cccn2)nc(-c2ccco2)n1 |  |  |  | 
20 | 0.056 µM | Nc1cc(-n2cccn2)nc(-c2ccco2)n1 |  | 0.0029 µM |  | solubility ([4]; PBS, read-out: Solubility): 80 µg/mL (≈ 352 µM); CLint scaled [5]: 73 mL/min/kg
99 | 0.266 µM | CN1CCN(CC(=O)Nc2cc(-n3cccn3)nc(-c3ccco3)n2)CC1 | 2700 ng/g | 0.0027 µM | 0.026 µM | CLint scaled [5]: 6 mL/min/kg; solubility [6]: > 25000 µg/mL; logD [7]: 2.2; pKa [8]: 7.9; bioavailability [9]: 79%; AUC [10]: 2870 ng·h/mL; Ki (Adenosine receptor A2b): 0.035 µM; Ki (Adenosine receptor A3): 0.66 µM
5 | 0.028 µM | CN(C)CC(=O)Nc1cc(-n2cccn2)nc(-c2ccco2)n1 |  | 0.0052 µM |  | 

Reference: ChEMBL document CHEMBL1140734, “Identification of novel, water-soluble, 2-amino-N-pyrimidin-4-yl acetamides as A2A receptor antagonists with in vivo efficacy” (J Med Chem, 2008)
